In paper PMC6416898, “Prediction of Toxoplasma gondii virulence factor ROP18 competitive inhibitors by virtual screening” (Parasites & Vectors, 2019) one finds IC50 data, which are given here for two compounds.

The experiment concerns the target T1, ROP18 (187–554 aa) kinase domain (Toxoplasma gondii, UniProt Q2PAY2).
T1 construct: kinase domain 187-554 of ROP18; His6-GST-MBP-Gb1 fusion from plasmid pETDL4.0-ROP18, E. coli Rosetta 2, amylose beads; 4JRN is the docking structure (187-554), not solved here
Put plainly: HTRF KinEASE kinase assay with biotinylated peptide substrate. It counts as biochemical. For orientation: Time-resolved FRET reads energy transfer from a long-lived donor to a nearby acceptor.

Where two headings read alike, the source gives them in different places.

T1 sequence (Q2PAY2 187-554): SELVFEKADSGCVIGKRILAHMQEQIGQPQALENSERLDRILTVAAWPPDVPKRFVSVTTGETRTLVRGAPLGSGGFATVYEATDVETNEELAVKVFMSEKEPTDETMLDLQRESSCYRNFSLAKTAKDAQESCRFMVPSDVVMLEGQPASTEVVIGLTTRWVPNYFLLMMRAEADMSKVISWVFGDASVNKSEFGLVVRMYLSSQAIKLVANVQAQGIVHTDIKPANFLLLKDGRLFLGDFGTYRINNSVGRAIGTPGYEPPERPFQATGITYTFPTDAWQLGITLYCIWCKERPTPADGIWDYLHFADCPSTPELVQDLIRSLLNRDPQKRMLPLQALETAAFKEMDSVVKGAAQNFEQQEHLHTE

On to `O=C(O)CCCCCN1C(=O)c2c(Br)c(Br)c(Br)c(Br)c2C1=O` [compound 11, AK-918/11642046], for which the half-maximal inhibitory concentration (IC50) (read-out: IC50) amounted to 41 nM. In the case of `C=CCN1C(=O)NC(=O)/C(=C/c2cc(Br)c(OCC(=O)O)c(OC)c2)C1=O` [compound 1], half-maximal inhibition (IC50) was put at 220 nM.

By IC50 is commonly meant the concentration needed to halve the response being measured.
